Test results taken from publication PMC8333425, “Discovery of a dual Ras and ARF6 inhibitor from a GPCR endocytosis screen” (Nature Communications, 2021).
“And” between values parts separate entries of the source, which are not always exact repeats. Equal values may be shown once. “Also recorded” adds a separate entry of the source.

Legend:
β-arrestin2 = experiment: Confocal microscopy of β-arrestin2-YFP trafficking with B2R; type: cell-based, human; settings: 50 μM; BK
Protocol: One day before transfection, cells were seeded in 35-mm glass-bottom dishes (MatTek Corporation) at a density of 1 × 10^5 cells per dish. For the recordings of receptor internalization, HEK293 SL cells were transfected with 2 μg of AT1R-YFP. For the recordings of β-arrestin-2 recruitment to the receptor, HEK293SL cells were transfected with 50 ng of β-arrestin2-YFP and 250 ng of Flag-AT1R or HA-B2R. Forty-eight hours post-transfection, cells were serum starved, preincubated with DMSO (0.1% final concentration) or Rasarfin (50 μM) for 30 min at 37 °C. AT1R-expressing cells were stimulated with angiotensinII (AngII; 100 nM) and B2R-expressing cells were stimulated with bradykinin (BK; 1 μM) for 30 min (receptor-YFP) or 15 min (β-arrestin2-YFP). Cells were imaged with Zeiss LSM-510 and/or LSM-710 laser scanning confocal microscope. To detect YFP, […] and BP 505–550 nm emission filter. Images (2048 × 2048) were collected using a 63x oil immersion lens.

A549 cells = experiment: Cell proliferation assay (IncuCyte confluence), A549; type: cell-based, human; settings: for cell confluence (proliferation) / proliferation (confluence): listed as Rasarfin
Protocol: Cell proliferation was measured by a label-free, non-invasive cellular confluence assay using IncuCyte Live-Cell Imaging Systems (Essen Bioscience, Ann Arbor, MI, USA). MDA-MB-231 breast cancer and A549 lung carcinomas cells (1500 cells in 150 μl/well) were seeded overnight on a clear 96-well plate. Twenty-four hours later, the cells were treated with 0.1% DMSO, or different concentrations of Rasarfin (as indicated), or 10 µM of 21.4 or 21.8 for 96 h total. The plate was placed in an XL-3 incubation chamber maintained at 37 °C and the cells were photographed using a ×4 objective, every 3 h for 4 days. Cell confluence was calculated using IncuCyte S3 software (2019A) and cell proliferation was expressed as an increase in the percentage of confluence. Experiments were done in triplicate and repeated three times.

CC(C)C(=O)N1CCN(c2ccc(NC(=O)c3cc4ccccc4o3)cc2Cl)CC1 [Compound 21]
β-arrestin trafficking with B2R into endosomes (microscopy) (β-arrestin2): prevented β-arrestins’ trafficking with receptors into endosomes
cell confluence (proliferation) (A549 cells; 0.5μM, 18 hr): 9.332 and 9.3043 and 10.3515
proliferation (confluence) (A549 cells; 0.5μM, 18 hr): 24.4895 and 24.566 and 18.9209
cell confluence (proliferation) (A549 cells; 0.5μM, 21 hr): 10.4726 and 10.4517 and 11.0087
proliferation (confluence) (A549 cells; 0.5μM, 21 hr): 27.1666 and 26.6886 and 21.2647
cell confluence (proliferation) (A549 cells; 0.5μM, 24 hr): 10.2389 and 10.6946 and 11.5243
proliferation (confluence) (A549 cells; 0.5μM, 24 hr): 32.6256 and 30.048 and 24.569
cell confluence (proliferation) (A549 cells; 0.5μM, 27 hr): 10.805 and 11.0634 and 12.4799
proliferation (confluence) (A549 cells; 0.5μM, 27 hr): 37.2681 and 34.654 and 21.9145
cell confluence (proliferation) (A549 cells; 0.5μM, 30 hr): 11.9152 and 12.485 and 12.9764
proliferation (confluence) (A549 cells; 0.5μM, 30 hr): 41.4109 and 39.7044 and 23.7331
cell confluence (proliferation) (A549 cells; 0.5μM, 33 hr): 12.3634 and 12.541 and 13.8499
proliferation (confluence) (A549 cells; 0.5μM, 33 hr): 46.0502 and 43.4249 and 28.4554
proliferation (confluence) (A549 cells; 0.5μM, 36 hr): 51.8492 and 49.6782 and 33.7864
proliferation (confluence) (A549 cells; 0.5μM, 39 hr): 59.4007 and 56.0507
cell confluence (proliferation) (A549 cells; 1μM, 18 hr): 8.679 and 9.302 and 9.424
proliferation (confluence) (A549 cells; 1μM, 18 hr): 19.1081 and 18.3715 and 26.7974
cell confluence (proliferation) (A549 cells; 1μM, 21 hr): 9.1 and 10.4023 and 9.667
proliferation (confluence) (A549 cells; 1μM, 21 hr): 21.9794 and 20.7173 and 31.1317
cell confluence (proliferation) (A549 cells; 1μM, 24 hr): 9.619 and 10.4616 and 10.6323
proliferation (confluence) (A549 cells; 1μM, 24 hr): 24.7962 and 23.1147 and 35.367
cell confluence (proliferation) (A549 cells; 1μM, 27 hr): 10.2207 and 11.0837 and 11.4063
proliferation (confluence) (A549 cells; 1μM, 27 hr): 28.2759 and 21.7311 and 40.5461
cell confluence (proliferation) (A549 cells; 1μM, 30 hr): 12.7027 and 12.0976 and 12.1684
proliferation (confluence) (A549 cells; 1μM, 30 hr): 31.8721 and 23.9788 and 46.1337
cell confluence (proliferation) (A549 cells; 1μM, 33 hr): 12.8101 and 12.4309 and 12.7886
proliferation (confluence) (A549 cells; 1μM, 33 hr): 35.7112 and 29.1451 and 51.7711
cell confluence (proliferation) (A549 cells; 1μM, 36 hr): 13.5305
proliferation (confluence) (A549 cells; 1μM, 36 hr): 39.6717 and 33.6517 and 60.1281
proliferation (confluence) (A549 cells; 1μM, 39 hr): 47.4848 and 40.2179
cell confluence (proliferation) (A549 cells; 2μM, 18 hr): 9.332 and 13.0386 and 10.4059
proliferation (confluence) (A549 cells; 2μM, 18 hr): 23.9116 and 20.6158 and 17.6553
cell confluence (proliferation) (A549 cells; 2μM, 21 hr): 10.4726 and 14.2716 and 10.9627
proliferation (confluence) (A549 cells; 2μM, 21 hr): 27.3499 and 22.7836 and 20.9361
cell confluence (proliferation) (A549 cells; 2μM, 24 hr): 10.2389 and 15.0053 and 11.5919
proliferation (confluence) (A549 cells; 2μM, 24 hr): 32.3505 and 25.0274 and 22.3969
cell confluence (proliferation) (A549 cells; 2μM, 27 hr): 10.805 and 15.8245 and 11.5779
proliferation (confluence) (A549 cells; 2μM, 27 hr): 36.576 and 29.0777 and 20.6023
cell confluence (proliferation) (A549 cells; 2μM, 30 hr): 11.9152 and 18.2698 and 12.1995
proliferation (confluence) (A549 cells; 2μM, 30 hr): 40.8806 and 32.6797 and 23.0649
cell confluence (proliferation) (A549 cells; 2μM, 33 hr): 12.3634 and 18.789 and 13.0531
proliferation (confluence) (A549 cells; 2μM, 33 hr): 45.6439 and 35.4748 and 28.9537
cell confluence (proliferation) (A549 cells; 2μM, 36 hr): 12.4389 and 19.3831 and 13.6426
proliferation (confluence) (A549 cells; 2μM, 36 hr): 52.1825 and 39.835 and 32.0484
proliferation (confluence) (A549 cells; 2μM, 39 hr): 61.5258 and 48.4257 and 38.4343
cell confluence (proliferation) (A549 cells; 5μM, 18 hr): 10.0859 and 8.906 and 10.6663
proliferation (confluence) (A549 cells; 5μM, 18 hr): 17.9959 and 26.9316 and 16.8915
cell confluence (proliferation) (A549 cells; 5μM, 21 hr): 10.2266 and 10.3015 and 11.0904
proliferation (confluence) (A549 cells; 5μM, 21 hr): 19.5572 and 26.3286 and 18.8493
cell confluence (proliferation) (A549 cells; 5μM, 24 hr): 11.4115 and 9.856 and 11.3241
proliferation (confluence) (A549 cells; 5μM, 24 hr): 21.409 and 27.1851 and 17.4154
cell confluence (proliferation) (A549 cells; 5μM, 27 hr): 11.7245 and 10.4475 and 12.7275
proliferation (confluence) (A549 cells; 5μM, 27 hr): 22.045 and 28.0966 and 15.1402
cell confluence (proliferation) (A549 cells; 5μM, 30 hr): 12.7699 and 11.1958 and 12.4012
cell confluence (proliferation) (A549 cells; 5μM, 33 hr): 12.6309 and 11.193 and 12.7637
proliferation (confluence) (A549 cells; 5μM, 33 hr): 25.4457 and 25.9951 and 18.0713
cell confluence (proliferation) (A549 cells; 5μM, 36 hr): 13.1014 and 11.8184 and 13.4133
proliferation (confluence) (A549 cells; 5μM, 36 hr): 26.9015 and 24.9434 and 20.5372
proliferation (confluence) (A549 cells; 5μM, 39 hr): 29.6606 and 26.9243 and 22.5988
cell confluence (proliferation) (A549 cells; 10μM, 18 hr): 8.409 and 7.2062 and 9.084
proliferation (confluence) (A549 cells; 10μM, 18 hr): 10.5387 and 14.905 and 7.973
cell confluence (proliferation) (A549 cells; 10μM, 21 hr): 8.837 and 8.143 and 9.362
proliferation (confluence) (A549 cells; 10μM, 21 hr): 10.701 and 14.8102 and 7.904
cell confluence (proliferation) (A549 cells; 10μM, 24 hr): 9.479 and 8.1046 and 9.485
proliferation (confluence) (A549 cells; 10μM, 24 hr): 11.1918 and 15.0497 and 7.616
cell confluence (proliferation) (A549 cells; 10μM, 27 hr): 9.816 and 8.066 and 10.344
cell confluence (proliferation) (A549 cells; 10μM, 30 hr): 10.3507 and 8.537 and 10.5983
cell confluence (proliferation) (A549 cells; 10μM, 33 hr): 10.1924 and 8.993 and 10.9238
cell confluence (proliferation) (A549 cells; 10μM, 36 hr): 10.249 and 9.152 and 11.0645
A549 cell growth (confluency) (A549 cells; 5 and 10 µM of Rasarfin): efficiently blocks proliferation; also recorded: efficient A549 cell growth inhibition
